Source: PMC8501799, “Constitutive signal bias mediated by the human GHRHR splice variant 1” (Proceedings of the National Academy of Sciences of the …, 2021)

Experiments:
Experiment in all cases: cAMP accumulation
Assay type in all cases: cell-based
[1] = target: T1, GHRHR Δ89 (Homo sapiens, UniProt Q02643)
T1 construct: expressed in transfected cells; host or cells: HEK293T
T1 sequence (Q02643 90-423): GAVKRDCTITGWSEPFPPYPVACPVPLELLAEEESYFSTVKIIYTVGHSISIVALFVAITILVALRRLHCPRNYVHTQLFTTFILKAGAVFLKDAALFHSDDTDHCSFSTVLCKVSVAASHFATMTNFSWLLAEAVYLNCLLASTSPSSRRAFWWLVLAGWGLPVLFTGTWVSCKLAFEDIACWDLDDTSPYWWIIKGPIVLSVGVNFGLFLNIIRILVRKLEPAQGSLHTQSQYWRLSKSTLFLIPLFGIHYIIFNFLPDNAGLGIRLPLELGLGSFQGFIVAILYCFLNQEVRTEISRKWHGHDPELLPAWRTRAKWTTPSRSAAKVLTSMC
Method: (§1) GHRH-stimulated cAMP accumulation was measured by a LANCE Ultra cAMP kit (PerkinElmer). Briefly, HEK293T cells (24 h after transfection with SV1 or GHRHR) or prostate cancer cells were digested by 0.2% (wt/vol) EDTA and washed once with Dulbecco’s phosphate-buffered saline (PBS). Cells were then resuspended with stimulation buffer (Hanks’ balanced salt solution [HBSS] supplemented with 5 mM HEPES, 0.5 mM IBMX, and 0.1% [wt/vol] bovine serum albumin [BSA], pH 7.4) to a density of 0.6 million cells per milliliter and added to 384-well white plates (3,000 cells per well). […] The reaction was stopped by adding 5 μL Eu-cAMP tracer and 5 μL ULight-anti-cAMP. After 1 h RT incubation, TR-FRET signals (excitation: 320 nm, emission: 615 and 665 nm) were measured by an Envision plate reader (PerkinElmer). cAMP concentrations were interpolated by a standard curve.
(§2) All functional study data were analyzed using Prism 7 (GraphPad) and presented as means ± SEM from at least three independent experiments. Concentration-response curves were evaluated with a three-parameter logistic equation. The significance was determined with either two-tailed Student’s t test or one-way ANOVA, and P < 0.05 is considered statistically significant.
(§3) Table S2. Effects of residue mutation or truncation in the ECD of GHRHR on GHRH-induced cAMP […]
(§4) Mutant pEC50 Emax (% WT GHRHR) expression ΔLog (τ/KA) […]
(§5) cAMP accumulation data were analyzed using a three-parameter logistic equation to determine pEC50 and Emax values. pEC50 is the negative logarithm of the molar concentration of agonist that induced half the maximal response. Emax for mutants is expressed as a percentage of the WT GHRHR. Data were analyzed by nonlinear regression using the operational model equation to determine t he logR values (logτ/KA, i.e., logarithm of the transduction ratio). τ is the effi cacy value of the agonist and was corrected by cell surface expression of the receptor. KA is dissociation constant. Changes in transduction ratio (ΔlogR) were calculated to determine the relative effectiveness of the mutants. All values are means ± S.E.M. of at le ast three ind ep en dent experiments (n = 3-5) conducted in quadruplicate. Statistical analysis was carried out by comparing the control responses in the WT GHRHR. **, P < 0.01 and ***, P < 0.001, determined by one-way

[2] = target: T2, GHRHR Δ82 (Homo sapiens, UniProt Q02643); conditions: Table S2, mean ± SEM
T2 construct: expressed in transfected cells; host or cells: HEK293T
Method: as §1, §2, §3, §4, §5

[3] = target: T3, GHRHR Δ72 (Homo sapiens, UniProt Q02643); conditions: Table S2, mean ± SEM
T3 construct: expressed in transfected cells; host or cells: HEK293T
Method: as §1, §2, §3, §4, §5

[4] = target: T4, GHRHR Δ92 (Homo sapiens, UniProt Q02643); conditions: Table S2, mean ± SEM
T4 construct: expressed in transfected cells; host or cells: HEK293T
Method: as §1, §2, §3, §4, §5

[5] = target: T5, GHRHR Δ102 (Homo sapiens, UniProt Q02643); conditions: Table S2, mean ± SEM
T5 construct: expressed in transfected cells; host or cells: HEK293T
Method: as §1, §2, §3, §4, §5

[6] = target: T6, GHRHR F82A (Homo sapiens, UniProt Q02643, F82A); conditions: Table S2, mean ± SEM
T6 construct: expressed in transfected cells; host or cells: HEK293T
Method: as §1, §2, §3, §4, §5

[7] = target: T7, GHRHR L34A (Homo sapiens, UniProt Q02643, L34A); conditions: Table S2, mean ± SEM
T7 construct: expressed in transfected cells; host or cells: HEK293T
Method: as §1, §2, §3, §4, §5

[8] = target: T8, GHRHR Δ112 (Homo sapiens, UniProt Q02643); conditions: Table S2, mean ± SEM
T8 construct: expressed in transfected cells; host or cells: HEK293T
Method: as §1, §2, §3, §4, §5

[9] = target: T9, GHRHR L62A (Homo sapiens, UniProt Q02643, L62A); conditions: Table S2, mean ± SEM
T9 construct: expressed in transfected cells; host or cells: HEK293T
Method: as §1, §2, §3, §4, §5

[10] = target: T10, GHRHR L34A-L62A-F82A-F85A (Homo sapiens, UniProt Q02643, F82A/F85A/L34A/L62A); conditions: Table S2, mean ± SEM
T10 construct: expressed in transfected cells; host or cells: HEK293T
Method: as §1, §2, §3, §4, §5

[11] = target: T11, GHRHR Δ62 (Homo sapiens, UniProt Q02643); conditions: Table S2, mean ± SEM
T11 construct: expressed in transfected cells; host or cells: HEK293T
Method: as §1, §2, §3, §4, §5

[12] = target: T12, GHRHR Δ42 (Homo sapiens, UniProt Q02643); conditions: Table S2, mean ± SEM
T12 construct: expressed in transfected cells; host or cells: HEK293T
Method: as §1, §2, §3, §4, §5

[13] = target: T13, GHRHR F85A (Homo sapiens, UniProt Q02643, F85A); conditions: Table S2, mean ± SEM
T13 construct: expressed in transfected cells; host or cells: HEK293T
Method: as §1, §2, §3, §4, §5

[14] = target: T14, GHRHR Δ52 (Homo sapiens, UniProt Q02643); conditions: Table S2, mean ± SEM
T14 construct: expressed in transfected cells; host or cells: HEK293T
Method: as §1, §2, §3, §4, §5

[15] = HEK-293T, HEK293T, n = 3-5 in quadruplicate
[16] = operational model, τ corrected by cell surface expression, relative to WT GHRHR

T7 sequence (Q02643 23-423 L34A): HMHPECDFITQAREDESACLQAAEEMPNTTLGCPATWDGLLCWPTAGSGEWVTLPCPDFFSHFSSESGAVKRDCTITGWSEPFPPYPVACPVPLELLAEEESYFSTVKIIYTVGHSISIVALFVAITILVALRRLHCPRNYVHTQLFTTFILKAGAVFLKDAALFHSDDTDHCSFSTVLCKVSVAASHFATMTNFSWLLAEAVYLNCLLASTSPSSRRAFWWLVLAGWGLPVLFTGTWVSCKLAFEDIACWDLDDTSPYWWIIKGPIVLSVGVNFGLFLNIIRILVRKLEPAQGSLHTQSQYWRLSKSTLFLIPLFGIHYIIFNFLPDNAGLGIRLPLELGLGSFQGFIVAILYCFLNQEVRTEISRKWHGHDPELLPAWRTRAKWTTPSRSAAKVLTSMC
T6 sequence (Q02643 23-423 F82A): as the sequence (Q02643 23-423 L34A) above, with A12L, F60A counted along it
T12 sequence (Q02643 43-423 limits assumed, stated change not applied): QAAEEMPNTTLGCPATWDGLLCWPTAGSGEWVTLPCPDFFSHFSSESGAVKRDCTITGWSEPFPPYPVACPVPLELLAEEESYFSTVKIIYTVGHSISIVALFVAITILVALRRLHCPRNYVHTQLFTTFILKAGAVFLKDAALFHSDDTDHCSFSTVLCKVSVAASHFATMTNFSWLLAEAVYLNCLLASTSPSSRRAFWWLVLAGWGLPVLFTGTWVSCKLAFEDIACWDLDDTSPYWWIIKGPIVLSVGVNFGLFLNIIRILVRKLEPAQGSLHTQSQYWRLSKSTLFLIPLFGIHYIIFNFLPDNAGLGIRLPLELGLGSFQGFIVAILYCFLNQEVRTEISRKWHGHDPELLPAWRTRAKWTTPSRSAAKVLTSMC
T13 sequence (Q02643 23-423 F85A): as the sequence (Q02643 23-423 L34A) above, with A12L, F63A counted along it
T14 sequence (Q02643 53-423 limits assumed, stated change not applied): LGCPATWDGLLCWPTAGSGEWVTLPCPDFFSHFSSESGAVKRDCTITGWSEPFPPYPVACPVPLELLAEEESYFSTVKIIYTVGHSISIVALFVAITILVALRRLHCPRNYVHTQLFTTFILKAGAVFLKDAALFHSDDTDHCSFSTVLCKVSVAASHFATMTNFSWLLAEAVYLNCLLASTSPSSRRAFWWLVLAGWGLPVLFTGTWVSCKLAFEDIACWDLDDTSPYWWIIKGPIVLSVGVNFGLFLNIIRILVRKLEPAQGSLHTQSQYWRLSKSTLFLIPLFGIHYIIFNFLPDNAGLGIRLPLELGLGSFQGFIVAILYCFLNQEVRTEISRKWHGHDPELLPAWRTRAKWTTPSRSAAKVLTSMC
T2 sequence (Q02643 83-423 limits assumed, stated change not applied): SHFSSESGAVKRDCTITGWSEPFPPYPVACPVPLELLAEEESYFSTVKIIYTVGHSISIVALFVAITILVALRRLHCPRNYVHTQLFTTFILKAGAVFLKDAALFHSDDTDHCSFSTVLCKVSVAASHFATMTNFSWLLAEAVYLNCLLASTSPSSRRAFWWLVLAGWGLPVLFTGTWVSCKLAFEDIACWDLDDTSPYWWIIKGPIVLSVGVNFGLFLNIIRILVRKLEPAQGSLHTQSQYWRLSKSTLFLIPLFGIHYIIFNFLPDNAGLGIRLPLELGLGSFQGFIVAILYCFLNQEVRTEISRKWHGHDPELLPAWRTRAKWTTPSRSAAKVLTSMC
T11 sequence (Q02643 63-423 limits assumed, stated change not applied): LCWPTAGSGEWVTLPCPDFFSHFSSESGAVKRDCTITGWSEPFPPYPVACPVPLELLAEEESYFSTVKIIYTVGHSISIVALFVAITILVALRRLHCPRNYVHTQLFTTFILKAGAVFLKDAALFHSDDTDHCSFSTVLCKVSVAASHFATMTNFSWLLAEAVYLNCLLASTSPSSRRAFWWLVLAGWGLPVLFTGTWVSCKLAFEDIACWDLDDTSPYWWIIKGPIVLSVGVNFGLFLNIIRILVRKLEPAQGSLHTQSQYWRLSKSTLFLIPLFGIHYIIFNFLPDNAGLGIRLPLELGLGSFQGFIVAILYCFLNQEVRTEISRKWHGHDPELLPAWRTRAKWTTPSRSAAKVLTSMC
T3 sequence (Q02643 73-423 limits assumed, stated change not applied): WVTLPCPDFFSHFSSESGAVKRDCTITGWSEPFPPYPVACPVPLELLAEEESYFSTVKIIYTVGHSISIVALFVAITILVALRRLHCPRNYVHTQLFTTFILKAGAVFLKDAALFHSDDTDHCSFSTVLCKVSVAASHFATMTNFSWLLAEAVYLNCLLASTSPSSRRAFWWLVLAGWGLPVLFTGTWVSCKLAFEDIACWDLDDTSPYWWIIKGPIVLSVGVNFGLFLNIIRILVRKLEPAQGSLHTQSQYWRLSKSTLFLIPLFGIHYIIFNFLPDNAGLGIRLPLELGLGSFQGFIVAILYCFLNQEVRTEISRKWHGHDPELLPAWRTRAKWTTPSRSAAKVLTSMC
T10 sequence (Q02643 23-423 L34A/L62A/F82A/F85A): as the sequence (Q02643 23-423 L34A) above, with L40A, F60A, F63A counted along it
T9 sequence (Q02643 23-423 L62A): as the sequence (Q02643 23-423 L34A) above, with A12L, L40A counted along it

## CC[C@H](C)[C@H](NC(=O)[C@H](C)NC(=O)[C@H](CC(=O)O)NC(=O)[C@H](C)NC(=O)[C@@H](N)Cc1ccc(O)cc1)C(=O)N[C@@H](Cc1ccccc1)C(=O)N[C@H](C(=O)N[C@@H](CC(N)=O)C(=O)N[C@@H](CO)C(=O)N[C@@H](Cc1ccc(O)cc1)C(=O)N[C@@H](CCCNC(=N)N)C(=O)N[C@@H](CCCCN)C(=O)N[C@H](C(=O)N[C@@H](CC(C)C)C(=O)NCC(=O)N[C@@H](CCC(N)=O)C(=O)N[C@@H](CC(C)C)C(=O)N[C@@H](CO)C(=O)N[C@@H](C)C(=O)N[C@@H](CCCNC(=N)N)C(=O)N[C@@H](CCCCN)C(=O)N[C@@H](CC(C)C)C(=O)N[C@@H](CC(C)C)C(=O)N[C@@H](CCC(N)=O)C(=O)N[C@@H](CC(=O)O)C(=O)N[C@H](C(=O)N[C@@H](CCSC)C(=O)N[C@@H](CO)C(=O)N[C@@H](CCCNC(=N)N)C(=O)N[C@@H](CCC(N)=O)C(=O)N[C@@H](CCC(N)=O)C(=O)NCC(=O)N[C@@H](CCC(=O)O)C(=O)N[C@@H](CO)C(=O)N[C@@H](CC(N)=O)C(=O)N[C@@H](CCC(N)=O)C(=O)N[C@@H](CCC(=O)O)C(=O)N[C@@H](CCCNC(=N)N)C(=O)NCC(=O)N[C@@H](C)C(=O)N[C@@H](CCCNC(=N)N)C(=O)N[C@@H](C)C(=O)N[C@@H](CCCNC(=N)N)C(=O)N[C@@H](CC(C)C)C(N)=O)[C@@H](C)CC)C(C)C)[C@@H](C)O [GHRH, growth hormone–releasing hormone]
[1]; HEK293T, Fig. 1B
  cAMP responses after removal of the N-terminal 89 residues: diminished cAMP responses
[1]; HEK-293T, Table S2, HEK293T, mean ± SEM, n = 3-5 in quadruplicate
  Emax: 106 ± 2.48%
[1]; Table S2, operational model, τ corrected by cell surface expression, relative to WT GHRHR, mean ± SEM
  ΔLog (τ/KA): -3.28 ± 0.03
[2]; [15]
  Emax: 104 ± 2.51%
[2]; [16]
  ΔLog (τ/KA): -3.14 ± 0.03
[3]; [15]
  Emax: 104 ± 2.57%
[3]; [16]
  ΔLog (τ/KA): -2.98 ± 0.04
[4]; [15]
  Emax: 106 ± 2.38%
[4]; [16]
  ΔLog (τ/KA): -3.78 ± 0.03
[5]; [15]
  Emax: 107 ± 2.15%
[5]; [16]
  ΔLog (τ/KA): -3.55 ± 0.02
[6]; [15]
  Emax: 99.8 ± 1.36%
[6]; [16]
  ΔLog (τ/KA): -0.53 ± 0.05
[7]; [15]
  Emax: 101 ± 2.23%
[7]; [16]
  ΔLog (τ/KA): -0.78 ± 0.06
[8]; [15]
  Emax: 106 ± 2.34%
[8]; [16]
  ΔLog (τ/KA): -3.65 ± 0.02
[9]; [15]
  Emax: 98 ± 2%
[9]; [16]
  ΔLog (τ/KA): -1.03 ± 0.04
[10]; [15]
  Emax: 105 ± 5.52%
[10]; [16]
  ΔLog (τ/KA): -4.07 ± 0.04
[11]; [15]
  Emax: 104 ± 2.19%
[11]; [16]
  ΔLog (τ/KA): -3.05 ± 0.03
[12]; [15]
  Emax: 104 ± 1.53%
[12]; [16]
  ΔLog (τ/KA): -2.86 ± 0.02
[13]; [15]
  Emax: 100 ± 1.69%
[13]; [16]
  ΔLog (τ/KA): -0.27 ± 0.04
[14]; [15]
  Emax: 106 ± 1.62%
[14]; [16]
  ΔLog (τ/KA): -2.83 ± 0.03
